Source: patent US9433577B2, “Pharmaceutical composition comprising oligopeptides” (Merck Patent GmbH, priority 2009, dated 2016)
In brackets after ≈: the same amount, converted by molar mass.

How the values were obtained:
[1] = Dynamic vapour experiments (Water Vapour Sorption, 25° C.); format: physicochemical; conditions: for mass loss in the first desorption cycle / initial drying step (0% rh) / total mass loss in the second desorption cycle: Water Vapour Sorption; for maximum weight gain upon water vapour adsorption (assembly of water molecules in the lattice): at elevated rh
From the text: (§1) A SMS DVS Intrinsic is used for the dynamic vapour experiments. The results are obtained by standard techniques as described in Rolf Hilfiker, ‘Polymorphism in the Pharmaceutical Industry’, Wiley-VCH. Weinheim 2006 (Chapter 9: Water Vapour Sorption, and references therein). […] Upon water vapour adsorption, an assembly of water molecules in the lattice is observed, with a maximum weight gain of approx. 8 wt % at elevated rh. In the second desorption cycle a total mass loss of approx. 9.9 wt % is observed. For a Cilengitide Dihydrate Di-Methanolate, the calculated Methanol content equals 9.3 wt %.
as §1, with “6.4” for “8”, “9.2” for “9.9”, “Di-Ethanolate,” for “Di-Methanolate,”, “Ethanol” for “Methanol”, “12.5” for “9.3”

[2] = Thermodynamic stability of crystalline forms (slurry / vapour atmosphere); format: physicochemical
From the text: Wetted material in this regard is preferably a mixture of the respective anhydrate with at least 5% by weight, more preferably at least 10% by weight and especially 20% by weight, of the respective aqueous system.
Upon water vapour adsorption, an assembly of water molecules in the lattice is observed, with a maximum weight gain of approx. 6.4 wt % at elevated rh. In the second desorption cycle a total mass loss of approx. 9.2 wt % is observed. For a Dihydrate Di-Ethanolate of the compound of formula Id, the calculated Ethanol content equals 12.5 wt %.
Also the pure form A1 can be manufactured by competitive slurry conversion experiments with a mixture of a pseudopolymorphic form (for example S1, S2, S3 or mixtures of these) and A1 (1:1) in Acetone, Acetonitrile, Isopropanol, physiological NaCl solution, Phosphate buffer (pH 7.4) and 1:1 (v:v) mixtures of Acetone, Acetonitrile, Isopropanol with Water at RT (25° C.).
Approx. 20 mg of a pseudopolymorphic form (for example S1, S2, S3 or mixtures of these) and 20 mg of form A1 of Cilengitide are dispersed in 200-700 μl solvent at room temperature. The dispersion is stirred for 5 days and additionally 26 days (long-term experiment) at RT (25° C.) by a magnetic stirrer and finally filtered. […]

[3] = Pharmacokinetic study in monkeys; conditions: in vivo, Cynomolgus monkey, animal 583, dose 11.8 mg/kg, suspension Cilengitide 300 mg/mL + DMPG 2 mg/mL, read-out: MSC1097999
Experimental: • Composition (Suspension) administered • Cilengitide: 300 mg/mL • DMPG: 2 mg/mL • Phenol: 0.5% • NaCl: 0.9% • Species/strain and number of animals • Monkey, Cynomolgus • Dose: 12 mg/kg (40 μL suspension/kg) • Sampling time points: 0.25, 0.5, 2, 4, 8 hours post dose: […]

[4] = Saturation solubility of Cilengitide solid forms in water and solvents; format: physicochemical
Experimental: Solubility in this regard is preferably refers to the saturation solubility, which is preferably the maximum mass of the respective compound, which can be solubilised or dissolved in a solvent at a respective temperature and at a specific pressure, preferably atmospheric pressure.
10 mL of solvent is placed in an amber glass ampul and sufficient substance is added to yield a distinct sediment that remains on the bottom after mixing thoroughly. After standing for 15 minutes and mixing again the ampuls are sealed and shaken in a thermostatically controlled water bath (20° C./16 hours or 25° C./16 hours, preferably 20° C./16 hours). Afterwards the ampuls are opened and the supernatant solution is filtered until the filtrate is clear. The content of the substance is determined photometrically in an aliquot by means of the specific adsorption coefficient. The respective dilution of the solvent without substance serves as blank. The solubility is expressed in the dimension of g substance in 100 mL or mg substance in 1 mL, preferably in mg substance in 1 mL. Preferably, this method is performed at normal atmospheric pressure and especially at the standardised “normal” atmospheric pressure, i.e. 1 atm=1.01325 bar.

With “cyclo-(Arg-Gly-Asp-DPhe-NMeVal) [form S2]” as the molecule, how does the “mass loss in the first desorption cycle / initial drying step (0% rh)” value [1] read?
The value was “approx. 6.5 wt %”.

And the “total mass loss in the second desorption cycle” value [1]?
The value was “approx. 9.2 wt %”.

What about the “mass loss in the first desorption cycle / initial drying step (0% rh)” value ([1]; listed as crystalline form S2) of the same molecule?
The value was “approx. 6.5 wt %”.

And the “total mass loss in the second desorption cycle” value ([1]; listed as crystalline form S2)?
Its value is “approx. 9.2 wt %”.

And the “maximum weight gain upon water vapour adsorption (assembly of water molecules in the lattice)” value [1]?
The value was “approx. 6.4 wt %”.

What about the “maximum weight gain upon water vapour adsorption (assembly of water molecules in the lattice)” value ([1]; listed as crystalline form S2) of the same molecule?
The value was “approx. 6.4 wt %”.

And the “thermodynamic stability of the form” value ([2]; atmosphere of 100% Ethanol vapour)?
Its value is “thermodynamically stable form”.

With `CC(C)[C@H]1C(=O)N[C@@H](CCCN=C(N)N)C(=O)NCC(=O)N[C@@H](CC(=O)O)C(=O)N[C@H](Cc2ccccc2)C(=O)N1C` [MSC1097999] as the molecule, how does the level at 0.25 h ([3]; 0.250 h) read?
Its level at 0.25 h is 586 ng/mL.

And the level at 0.5 h ([3]; 0.500 h)?
The level at 0.5 h was 967 ng/mL.

And the level at 2 h ([3]; 2.00 h)?
The level at 2 h was 892 ng/mL.

And the level at 4 h ([3]; 4.00 h)?
Its level at 4 h is 605 ng/mL.

And the level at 8 h ([3]; 8.00 h)?
The level at 8 h was 537 ng/mL.

For `CC(C)[C@H]1C(=O)N[C@@H](CCCNC(=N)N)C(=O)NCC(=O)N[C@@H](CC(=O)O)C(=O)N[C@H](Cc2ccccc2)C(=O)N1C` [crystalline form A1, cyclo-(Arg-Gly-Asp-DPhe-NMeVal)], which “hygroscopicity classification acc. to Ph. Eur. criteria” value ([1]; water uptake up to 98% relative humidity) is on record?
The value was “non-hygroscopic”.

And the “thermodynamic stability of the form” value ([2]; in the presence of aqueous based solvents, absence of methanol and/or ethanol)?
Its value is “thermodynamically stable form”.

And the solubility at 16 h ([4]; water, at 20° C. or 25° C., preferably at 20° C.)?
The solubility at 16 h was ~7000 µg/mL (≈ 11.9 mM).

For `CC(C)[C@H]1C(=O)N[C@@H](CCCNC(=N)N)C(=O)NCC(=O)N[C@@H](CC(=O)O)C(=O)N[C@H](Cc2ccccc2)C(=O)N1C` [tetrahydrate Form S3, cyclo-(Arg-Gly-Asp-DPhe-NMeVal)], which “mass loss in the first desorption cycle / initial drying step (0% rh)” value [1] is on record?
Its value is “ca. 9 wt %”.

What about the “maximum weight gain upon water vapour adsorption (assembly of water molecules in the lattice)” value [1] of the same molecule?
The value was “ca. 10 wt %”.

What about the Solubility ([4]; solvent H2O/Acetone (1:1)) of the same molecule?
The Solubility was 22700 µg/mL.

What does the source list for “cyclo-(Arg-Gly-Asp-DPhe-NMeVal) [form S1]”?
mass loss in the first desorption cycle / initial drying step (0% rh) [1]: approx. 8 wt %; total mass loss in the second desorption cycle [1]: approx. 9.9 wt %; maximum weight gain upon water vapour adsorption (assembly of water molecules in the lattice) [1]: approx. 8 wt %
